In series [1] the test system is PC-3 (prostate cancer cell line). Put plainly: In vitro cytotoxicity, MTT assay, PC-3. Format: cell-based. To be noted: Homo sapiens; MTT, 48 h, prostate cancer; read-out: IC50 PC3. The method, then: (§1) The resultant compounds were tested for their in vitro cytotoxic activity by MTT assay against breast (MCF-7), cervical (SiHa), and prostate (PC-3) cancer cell lines, and the human embryonic kidney cell line (HEK). […] Subsequently, SAR studies were done by investigating the effect of substituents on cytotoxic activity.
(§2) Human cervical cancer cell line SiHa, human breast cancer cell line MCF-7, human prostate cancer cell line PC-3, and human embryonic kidney HEK-293 cells were procured from the National Centre for Cell Sciences (NCCS) Pune, India. In this experiment, antibiotics (100 units/mL penicillin and 100 mg L^−1 streptomycin were grown as a monolayer culture in Dulbecco’s modified Eagle’s medium containing 10% fetal bovine serum) were cultured in a humidified atmosphere of 5% CO2 at 37 °C in T-75 flasks and subcultured twice a week.
(§3) The cytotoxic effects of the selected compounds were evaluated by MTT assay on the above-mentioned cell lines. Initially, 2 × 10^4 cells/well were seeded into 96-well plates (150 µL/well) in triplicates and allowed to grow. The cells were incubated for 24 h and subsequently treated with varying concentrations of the compounds. After 48 h, the cells were incubated with 20 μL of MTT (5 mg/mL in PBS) in a fresh medium for 4 h at 37 °C. MTT is a metabolic substrate that is reduced to give formazan crystals, which were solubilized in DMSO (150 µL/well) and analyzed by reading the absorbance at 540 nm after 15 min of the incubation period on the iMark Microplate Reader (Bio-Rad). Percentage viability and IC50 values were used to determine the relative absorbance of treated versus control (untreated) cells.

Series [2] has as its system HEK-293 (human embryonic kidney cells). As to the kind of experiment: In vitro cytotoxicity, MTT assay, HEK-293 normal cells. The class given is cell-based. Particulars: HEK293; MTT, 48 h, human normal cell line; read-out: IC50 HEK-293. On the procedure: as §1, §2, §3
In series [3] the test system is MCF-7 (breast cancer cell line). Put plainly: In vitro cytotoxicity, MTT assay, MCF-7. To be noted: Homo sapiens, MCF7; MTT, 48 h, breast cancer; read-out: IC50 MCF-7. Format: cell-based, human. The method, then:
as §1, §2, §3

For series [4], the target named is tubulin (purified brain tubulin) (Sus scrofa, UniProt P02550+P02554). As to the kind of experiment: In vitro tubulin polymerization assay (fluorescence). The class given is biochemical. To be noted: read-out: % Inhibition of Tubulin Polymerization at 10 µM. On the procedure: The α and β tubulin subunits are recognized by heterodimers and self-assemble into a stable microtubule in a time-dependent manner. Assessment of the inhibitory effect of new pyrazolic chalcone conjugates on tubulin polymerization was also carried out. The progression of tubulin polymerization was thus examined by monitoring the increase in the fluorescence intensity at 450 nm (excitation wavelength of 360 nm) in a 384-plate for 1 h at 37 °C with and without the conjugate at 10 µM concentration. CA-4 (6 µM) and Vincristine (3 µM) were used as the positive control, whereas paclitaxel (3 µM) was used as the negative control.
tubulin (purified brain tubulin), sequence (P02550 whole entry): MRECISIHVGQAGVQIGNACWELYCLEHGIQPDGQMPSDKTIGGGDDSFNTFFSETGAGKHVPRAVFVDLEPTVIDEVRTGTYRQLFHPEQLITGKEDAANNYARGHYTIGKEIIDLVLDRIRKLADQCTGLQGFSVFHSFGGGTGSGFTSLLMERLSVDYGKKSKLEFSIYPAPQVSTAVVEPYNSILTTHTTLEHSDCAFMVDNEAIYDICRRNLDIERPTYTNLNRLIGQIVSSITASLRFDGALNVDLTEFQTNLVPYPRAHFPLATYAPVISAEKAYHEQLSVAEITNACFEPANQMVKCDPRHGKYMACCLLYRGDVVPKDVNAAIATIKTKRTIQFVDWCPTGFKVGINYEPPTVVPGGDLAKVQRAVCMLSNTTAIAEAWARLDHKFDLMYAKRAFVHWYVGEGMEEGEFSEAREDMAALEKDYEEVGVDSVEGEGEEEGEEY
tubulin (purified brain tubulin), sequence (P02554 whole entry): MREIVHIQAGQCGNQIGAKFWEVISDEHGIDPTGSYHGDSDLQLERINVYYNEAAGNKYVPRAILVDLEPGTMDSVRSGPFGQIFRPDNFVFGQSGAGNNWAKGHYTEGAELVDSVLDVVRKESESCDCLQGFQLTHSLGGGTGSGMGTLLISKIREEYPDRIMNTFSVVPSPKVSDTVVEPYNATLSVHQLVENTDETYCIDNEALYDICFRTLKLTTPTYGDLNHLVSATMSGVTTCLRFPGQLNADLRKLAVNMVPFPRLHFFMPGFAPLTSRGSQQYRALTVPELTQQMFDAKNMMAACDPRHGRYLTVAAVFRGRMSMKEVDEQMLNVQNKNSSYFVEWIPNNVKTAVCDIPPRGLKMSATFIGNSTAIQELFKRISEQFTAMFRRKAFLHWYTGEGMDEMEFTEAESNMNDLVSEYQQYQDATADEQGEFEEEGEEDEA
Tubulin polymerization is a dynamic process by enhancement of fluorescence intensity due to the combination of a fluorescent reporter into the microtubules as polymerization occurs. Tubulin polymerization was performed by using a purified brain tubulin polymerization kit purchased from Cytoskeleton (BK110P, Denver, CO, USA). The tubulin polymerization assay was monitored by the increase in fluorescence over a 60 min period at 37 °C, with excitation at 360 nm and emission at 450 nm. The final buffer concentration for tubulin polymerization contained 80 mM PIPES, pH 6.9; 2 mM MgCl2; 0.5 mM EGTA; […]; and 15% glycerol. Firstly, 5 µL of the test compounds (final concentration of 10 µM) was added and then warmed to 37 °C for 1 min. The reaction was initiated by adding 50 µL of the tubulin reaction mix as specified for 6 min.

In series [5] the test system is SiHa (cervical cancer cell line). As to the kind of experiment: In vitro cytotoxicity, MTT assay, SiHa. Particulars: Homo sapiens, MTT, 48 h, cervical cancer, read-out: IC50 SiHa. The class given is cell-based. On the procedure: as §1, §2, §3

SMILES strings stand for the structures. Some results are limits rather than exact numbers.

In turn, `COc1ccc(C(=O)/C=C/c2cn(-c3ccccc3)nc2-c2ccc(OCc3ccccc3)cc2)c(OC)c1` [Compound 5p, (E)-3-(3-(4-(benzyloxy)phenyl)-1-phenyl-1H-pyrazol-4-yl)-1-(2,4-dimethoxyphenyl)prop-2-en-1-one] displayed a melting point of 226 to 228 °C. Besides, the IC50 in series [1] came out at 6.52 ± 1.23 µM. Also, in series [2], the IC50 is more than 50 µM. Further, the IC50 in series [3] stood at 3.45 ± 1.28 µM. Moreover, the inhibition at 10 µM in series [4] was 51.1%. In addition, in series [5], the IC50 was determined as 4.98 ± 0.54 µM.

Compound `O=C(/C=C/c1cn(-c2ccccc2)nc1-c1ccc(OCc2ccccc2)cc1)c1ccc(C(F)(F)F)cc1` [Compound 5r, (E)-3-(3-(4-(benzyloxy)phenyl)-1-phenyl-1H-pyrazol-4-yl)-1-(4-(trifluoromethyl)Phenyl)prop-2-en-1-one] had a melting point of 186 to 188 °C. In series [1], the IC50 was more than 50 µM. Moreover, the IC50 in series [2] was found to be 38.3 ± 1.72 µM. Besides, the IC50 in series [3] was found to be 14.8 ± 2.76 µM. Also, the inhibition at 10 µM in series [4] was 31.5%. Further, in series [5], the IC50 was more than 50 µM.

The values are drawn from paper PMC8954831, “Design, Synthesis, Molecular Docking, and Biological Evaluation of Pyrazole Hybrid Chalcone Conjugates as Potential Anticancer Agents and Tubulin Polymerization Inhibitors” (Pharmaceuticals, 2022).
